Data on seven compounds can be found in patent US11465965B2, “Double-headed protease inhibitor” (UBE INDUSTRIES, LTD., priority 2017, dated 2022).

The target in data set [1] is T1, Human recombinant trypsin (Homo sapiens, UniProt P07477).
T1 construct: purchased Wako Pure Chemical Industries, Ltd. 206-17171
Nature of the data set: Human trypsin inhibition test. The class given is biochemical. The following applies: 20 minutes after reaction start, read-out: Inhibition rate (trypsin); for inhibition at 0.001 µM: compound concentration 1 nM; for inhibition at 0.01 µM: compound concentration 10 nM; for inhibition at 0.1 µM: compound concentration 100 nM. The procedure: (Test Example 2): Human Trypsin Inhibition Test
Human recombinant trypsin (manufactured by Wako Pure Chemical Industries, Ltd., code no.: 206-17171) was diluted with an assay buffer (0.1 M Tris-HCl (pH8.0), 0.15 M NaCl, 10 mM CaCl2, 0.05% Brij35) to prepare a 10 ng/mL enzyme solution. Then, Boc-Phe-Ser-Arg-MCA (manufactured by PEPTIDE INSTITUTE, INC., code no.: 3107-v) was diluted with the assay buffer to prepare a 40 μM substrate solution. Each test compound was dissolved into DMSO, then diluted with the assay buffer 100 times, and further appropriately diluted with an assay buffer comprising 1% DMSO to prepare each compound solution. 10 μL of the compound solution, 15 μL of the assay buffer, and 50 μL of the substrate solution were added to a 96 well black plate (manufactured by Thermo Fisher Scientific Inc., code no.: 9502867), mixed, and then 25 μL of the enzyme solution was added thereto, and mixed to start the reaction. Fluorescence intensities at excitation wavelength 355 nm and fluorescence wavelength of 460 nm were measured by using a fluorescence plate reader (Flex station 3) (Test compound addition group). Also, the same reaction as described above except for not adding each test compound was carried out (Test compound non-addition group). Additionally, the same reaction as described above except for not adding each test compound and the enzyme was carried out (Control group). Inhibition rate was calculated by the following equation using fluorescence intensity after 20 minutes of reaction start. Inhibition rate (%)=(1−(fluorescence intensity of Test compound addition group−fluorescence intensity of Control group)[…](fluorescence intensity of Test compound non-addition group−fluorescence intensity of Control group))×100

In data set [2] the target is T2, Human recombinant enteropeptidase (Homo sapiens, UniProt P98073).
T2 construct: purchased BIO Vision Inc. 7529-50
Nature of the data set: Human enteropeptidase inhibition test. It counts as biochemical. The following applies: read-out: Inhibition rate (enteropeptidase); for inhibition at 0.001 µM: compound concentration 1 nM. The method, then: (Test Example 1): Human Enteropeptidase Inhibition Test
Human recombinant enteropeptidase (manufactured by BIO Vision Inc., catalog no.: 7529-50) was diluted with an assay buffer (50 mM tricine (pH8.0), 0.01 W/V % Tween 20, 10 mM CaCl2) to prepare an […] enzyme solution. Then, 5FAM-Abu-Gly-Asp-Asp-Lys-Ile-Val-Gly-Gly-Lys (CPQ2)-Lys-Lys-NH2 (manufactured by CHINESE PEPTIDE COMPANY, purity: 94.5) was diluted with the assay buffer to prepare a 1.5 μM substrate solution. Each test compound was dissolved into DMSO, then diluted with the assay buffer 100 times, and further appropriately diluted with an assay buffer comprising 1% DMSO to prepare each compound solution. 10 μL of the compound solution, 15 μL of the assay buffer, and 50 μL of the substrate solution were added to a 96 well black plate (manufactured by Thermo Fisher Scientific Inc., code no.: 9502867), mixed, then 25 μL of the enzyme solution was added thereto, and mixed to start the reaction. Fluorescence intensities at excitation wavelength 485 nm and fluorescence wavelength 535 nm were measured by using a fluorescence plate reader (Flex station 3) (Test compound addition group). Also, the same reaction as described above except for not adding each test compound was carried out (Test compound non-addition group). Additionally, the same reaction as described above except for not adding each test compound and the enzyme was carried out (Control group). Inhibition rate was calculated by the following equation using fluorescence intensity after 20 minutes of reaction start. Inhibition rate (%)=(1−(fluorescence intensity of Test compound addition group−fluorescence intensity of Control group)÷(fluorescence intensity of Test compound non-addition group−fluorescence intensity of Control group))×100

For a further data set, the system named is HFD-fed mouse. Nature of the data set: Fecal protein concentration-increasing test by single administration using HFD-fed mouse. The class given is in vivo. The following applies: 24 h, HFD-fed mice, vs vehicle group, read-out: Ratio for an increase of protein concentration in feces; for response vs control in vivo at 30 mg/kg: single oral dose 30 mg/kg. The text has this:
(Test Example 3): Fecal Protein Concentration-Increasing Test by Single Administration Using HFD-Fed Mouse
High fat diet-fed (HFD-fed) mice (D-12492 diet, male, ICR, 6 week old) were orally administered with a 0.5 W/V % methylcellulose suspension comprising each test compound (Compound administration group, 4 or 5 mice/group) or a 0.5 W/V % methylcellulose suspension (Compound non-administration group (Vehicle group), 5, 6, or 7 mice/group), and whole feces of the day were collected. Dried feces were dissolved into a 0.5N aqueous sodium hydroxide solution, followed by centrifugation at 3500 rpm. Then each protein concentration in the resulting supernatant was determined (Lowry method), and the ratio for an increase of protein concentration in feces was calculated by the following equation using the protein concentration in feces contained in 1 g of feces (mg/g feces). Ratio for an increase of protein concentration in feces−(average protein concentration in feces of Compound administration group)[…](average protein concentration in feces of Compound non-administration group)

Another data set relates to DIO mouse. Briefly: Anti-obesity effect test using DIO mouse. It counts as in vivo. The following applies: 336 h, DIO mice, vs vehicle group, read-out: Weight loss rate. The procedure: (Test Example 4): Anti-Obesity Effect Test Using DIO Mouse
Diet-induced obesity (DIO) mice (D-12492 diet, male, C57BL-DIO, 26 to 28-week old) were orally administered with a 0.5 W/V % methylcellulose suspension comprising each test compound (Compound administration group, 5 or 6 mice/group) or a 0.5 W/V % methylcellulose suspension (Compound non-administration group (Vehicle group), 6 mice/group) once daily for 2 weeks. Weight loss rate was calculated by the following equation. Weight loss rate (%) of each Compound administration group−(1−average weight at the last day of the test of each Compound administration group/average weight at the last day of the test of Vehicle group)×100

A short description of data set [3]: Rat pharmacokinetic (PK) test (plasma concentration after oral administration). The following applies: male, SD, 10 mg/kg.
Procedure: Each test compound was suspended in a 0.5 W/V % methylcellulose 400 solution to prepare a suspension, and the resulting suspension was orally administered to a male SD rat of 7 to 8-week old (weight: 180 to 250 g). After 0.25, 0.5, 1, 2, 4, 8, and 24 hour(s) of the administration of each test compound, blood (EDTA-added blood) was collected from jugular vein under isoflurane inhalation anesthesia. […] To the resulting blood plasma was added acetonitrile, a mixed solvent of acetonitrile and water (1:1 (V/V)), or a mixed solvent of acetonitrile and 0.1 M hydrochloric acid (1:1 (V/V)), then the resulting mixture was mixed at 750 rpm for 3 minutes in a shaker, and subjected to centrifugal separation at 3700 rpm for 2 minutes in a centrifuge to remove proteins. The resulting sample was subjected to LC (liquid chromatography)/MS (mass spectrometry) measurement under the following measurement conditions.
Each compound concentration in blood plasma at each time of blood collection was calculated according to the internal standard method, and, area under the plasma concentration vs. time curve (AUCall (Area Under Curve)) was calculated according to the trapezoidal method.
The LC and MS systems used in the present test are as follows.
LC: LC20 or LC30 HPLC system manufactured by Shimadzu Corporation
Column: Phenomenex Kinetex C18 (50×2.1 mm, 2.6 μm)
Column temperature: 40° C.
Mobile phase A: aqueous solution with 0.1% formic acid, Mobile phase B: 50% acetonitrile/methanol solution with 0.1% formic acid
The mark [4] stands for this setting: 20 minutes after reaction start.
Where [5] appears, read: compound concentration 10 nM, 20 minutes after reaction start.
Setting [6] is: compound concentration 100 nM, 20 minutes after reaction start.

Where a name gives a salt, the structure may show the parent alone. Read-outs that look alike come from different tables or passages of the source.

T2 sequence (P98073 whole entry): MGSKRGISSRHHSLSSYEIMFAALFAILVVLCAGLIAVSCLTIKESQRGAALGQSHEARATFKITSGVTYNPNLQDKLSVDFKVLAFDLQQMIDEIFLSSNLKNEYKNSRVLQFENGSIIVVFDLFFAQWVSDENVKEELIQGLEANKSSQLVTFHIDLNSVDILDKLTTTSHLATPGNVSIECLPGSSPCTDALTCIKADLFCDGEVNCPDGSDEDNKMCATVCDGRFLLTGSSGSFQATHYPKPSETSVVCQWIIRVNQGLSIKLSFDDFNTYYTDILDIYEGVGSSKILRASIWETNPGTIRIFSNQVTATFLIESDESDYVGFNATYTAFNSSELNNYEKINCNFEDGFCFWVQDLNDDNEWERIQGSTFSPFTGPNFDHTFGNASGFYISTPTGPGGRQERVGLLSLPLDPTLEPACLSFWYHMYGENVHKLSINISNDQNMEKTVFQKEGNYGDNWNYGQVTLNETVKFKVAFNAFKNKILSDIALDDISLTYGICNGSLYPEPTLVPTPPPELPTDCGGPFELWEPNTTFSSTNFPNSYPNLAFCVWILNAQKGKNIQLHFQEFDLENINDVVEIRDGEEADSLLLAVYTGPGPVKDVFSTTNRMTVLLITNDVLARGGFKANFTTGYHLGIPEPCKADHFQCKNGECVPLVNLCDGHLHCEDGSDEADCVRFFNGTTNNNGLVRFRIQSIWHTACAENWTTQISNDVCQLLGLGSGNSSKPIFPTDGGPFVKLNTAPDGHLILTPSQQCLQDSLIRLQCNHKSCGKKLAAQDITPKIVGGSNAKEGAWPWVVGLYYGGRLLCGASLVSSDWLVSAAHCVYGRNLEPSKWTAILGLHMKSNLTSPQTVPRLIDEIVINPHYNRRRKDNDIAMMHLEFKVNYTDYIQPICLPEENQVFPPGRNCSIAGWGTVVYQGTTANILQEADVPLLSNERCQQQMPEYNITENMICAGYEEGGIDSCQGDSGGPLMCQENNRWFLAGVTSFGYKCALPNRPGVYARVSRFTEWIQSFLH

A word on the inhibition: it is the change of the read-out against control, counted positive when it falls. With `N=C(N)Nc1ccc(C(=O)Oc2ccc(CNS(=O)(=O)N(CCOCCOCCN([C@@H](CC(=O)O)C(=O)O)S(=O)(=O)NCc3ccc(OC(=O)c4ccc(NC(=N)N)cc4)cc3)[C@@H](CC(=O)O)C(=O)O)cc2)cc1` [2-(b), (2S,13S)-3,12-bis(N-(4-((4-guanidinobenzoyl)oxy)benzyl)sulfamoyl)-6,9-dioxa-3,12-diazatetradecane-1,2,13,14-tetracarboxylic acid trifluoroacetate], the inhibition at 0.001 µM in data set [1] and in data set [2] (setting [4]) was no less than 50% in each case. In addition, the inhibition at 0.01 µM in data set [1] and in data set [2] (setting [5]) was no less than 50% throughout. For the same compound, the inhibition at 0.1 µM in data set [1] and in data set [2] (setting [6]) was no less than 50% throughout. Besides, the response vs control in vivo at 86 mg/kg with HFD-fed mouse (single oral dose 86 mg/kg) was no less than 130%.

`N=C(N)Nc1ccc(C(=O)Oc2ccc(CNS(=O)(=O)N(CCOCCOCCOCCN([C@@H](CC(=O)O)C(=O)O)S(=O)(=O)NCc3ccc(OC(=O)c4ccc(NC(=N)N)cc4)cc3)[C@@H](CC(=O)O)C(=O)O)cc2)cc1` [3-(b), (2S,163)-3,15-bis(N-(4-((4-guanidinobenzoyl)oxy)benzyl)sulfamoyl)-6,9,12-trioxa-3,15-diazaheptadecane-1,2,16,17-tetracarboxylic acid trifluoroacetate]: the inhibition at 0.001 µM in data set [1] and in data set [2] (setting [4]) was no less than 50% each time. Moreover, the inhibition at 0.01 µM in data set [1] and in data set [2] (setting [5]) was no less than 50% each time. The inhibition at 0.1 µM in data set [1] and in data set [2] (setting [6]) was no less than 50% in each case. Moreover, in the data set on HFD-fed mouse, the response vs control in vivo at 30 mg/kg was no less than 130%.

For the compound `N=C(N)Nc1ccc(C(=O)Oc2ccc(CNS(=O)(=O)N(CCOCCOCCOCCOCCOCCN([C@@H](CC(=O)O)C(=O)O)S(=O)(=O)NCc3ccc(OC(=O)c4ccc(NC(=N)N)cc4)cc3)[C@@H](CC(=O)O)C(=O)O)cc2)cc1` [5-(b), (2S,22S)-3,21-bis(N-(4-((4-guanidinobenzoyl)oxy)benzyl)sulfamoyl)-6,9,12,15,18-pentaoxa-3,21-diazatricosane-1,2,22,23-tetracarboxylic acid trifluoroacetate], in data set [1], the inhibition at 0.001 µM is no less than 50%, the inhibition at 0.01 µM was no less than 50% and the inhibition at 0.1 µM is no less than 50%. For the same compound, in data set [2], the inhibition at 0.01 µM was no less than 50% and the inhibition at 0.1 µM was no less than 50%. In addition, in the data set on HFD-fed mouse, the response vs control in vivo at 30 mg/kg was no less than 130%.

As for `N=C(N)Nc1ccc(C(=O)Oc2ccc(CNS(=O)(=O)N(CCOCCOCCOCCOCCOCCOCCN([C@@H](CC(=O)O)C(=O)O)S(=O)(=O)NCc3ccc(OC(=O)c4ccc(NC(=N)N)cc4)cc3)[C@@H](CC(=O)O)C(=O)O)cc2)cc1` [6-(b), (2S,25S)-3,24-bis(N-(4-((4-guanidinobenzoyl)oxy)benzyl)sulfamoyl)-6,9,12,15,18,21-hexaoxa-3,24-diazahexacosane-1,2,25,26-tetracarboxylic acid trifluoroacetate], in data set [1], the inhibition at 0.01 µM is no less than 50% and the inhibition at 0.1 µM was no less than 50%. For the same compound, in data set [2], the inhibition at 0.01 µM was no less than 50% and the inhibition at 0.1 µM was no less than 50%. In addition, the response vs control in vivo at 30 mg/kg in the data set with HFD-fed mouse is no less than 130%.

Regarding `N=C(N)Nc1ccc(C(=O)Oc2ccc(CNS(=O)(=O)N(CCCCN([C@@H](CC(=O)O)C(=O)O)S(=O)(=O)NCc3ccc(OC(=O)c4ccc(NC(=N)N)cc4)cc3)[C@@H](CC(=O)O)C(=O)O)cc2)cc1` [8-(c), (2S,2′S)-2,2′-(butane-1,4-diylbis((N-(4-((4-guanidinobenzoyl)oxy)benzyl)sulfamoyl)azanediyl))disuccinic acid hydrochloride], the response vs control in vivo at 30 mg/kg with HFD-fed mouse was no less than 130%.

On to `N=C(N)Nc1ccc(C(=O)Oc2ccc(COC(=O)N(CC(=O)N[C@@H](CC(=O)O)C(=O)NCCOCCOCCOCCOCCNC(=O)[C@H](CC(=O)O)NC(=O)CN(Cc3cccc(C(=O)O)c3)C(=O)OCc3ccc(OC(=O)c4ccc(NC(=N)N)cc4)cc3)Cc3cccc(C(=O)O)c3)cc2)cc1` [14-(b), (3S,22S)-3,22-bis(2-((3-carboxybenzyl) (((4-((4-guanidinobenzoyl)oxy)benzyl)oxy)carbonyl)amino)acetamido)-4,21-dioxo-8,1,14,17-tetraoxa-5,20-diazatetracosane-1,24-dioic acid trifluoroacetate], for which, in data set [1], the inhibition at 0.001 µM is no less than 50%, the inhibition at 0.01 µM is no less than 50% and the inhibition at 0.1 µM is no less than 50%. The inhibition at 0.01 µM in data set [2] (setting [5]) was no less than 50%. Moreover, in data set [2] (setting [6]), the inhibition at 0.1 µM was no less than 50%. Besides, the inhibition in vivo at 90 mg/kg with DIO mouse (oral 90 mg/kg once daily for 2 weeks) was no less than 4%. Besides, the response vs control in vivo at 89 mg/kg with HFD-fed mouse (single oral dose 89 mg/kg) is no less than 130%.

Usually AUC stands for the area under the concentration-time curve, a measure of exposure. The low end stands for low exposure, the high end for high exposure. Regarding `N=C(N)Nc1ccc2c(c1)CCCOc1c(cccc1C(=O)N(CCOCCOCCN(C(=O)c1cccc3c1OCCCc1cc(NC(=N)N)ccc1C(=O)O3)C(CC(=O)O)C(=O)O)C(CC(=O)O)C(=O)O)OC2=O` (centres unmarked) [19-(b), 3,12-bis(10-guanidino-13-oxo-6,7,8,13-tetrahydrodibenzo[b,f][1,4]dioxecin-4-carbonyl)-6,9-dioxa-3,12-diazatetradecane-1,2,13,14-tetracarboxylic acid trifluoroacetate], the inhibition at 0.001 µM in data set [1] and in data set [2] (setting [4]) was no less than 50% each time. The inhibition at 0.01 µM in data set [1] and in data set [2] (setting [5]) was no less than 50% each time. The inhibition at 0.1 µM in data set [1] and in data set [2] (setting [6]) was no less than 50% each time. The compound further gave an AUC in data set [3] of no more than 100 ng·h/mL. The inhibition in vivo at 30 mg/kg in the data set on DIO mouse (oral 30 mg/kg once daily for 2 weeks) is no less than 4%.
